{
  "source": "patent US12084472B2",
  "about": "(Ardelyx, Inc., priority 2015, dated 2024)",
  "data": [
    {"biological_target": "T1, human TGR5 (Homo sapiens, UniProt Q8TDU6)", "T1 construct": "expressed in transfected cells; host or cells: HEK293", "T1 sequence (Q8TDU6 1-330)": "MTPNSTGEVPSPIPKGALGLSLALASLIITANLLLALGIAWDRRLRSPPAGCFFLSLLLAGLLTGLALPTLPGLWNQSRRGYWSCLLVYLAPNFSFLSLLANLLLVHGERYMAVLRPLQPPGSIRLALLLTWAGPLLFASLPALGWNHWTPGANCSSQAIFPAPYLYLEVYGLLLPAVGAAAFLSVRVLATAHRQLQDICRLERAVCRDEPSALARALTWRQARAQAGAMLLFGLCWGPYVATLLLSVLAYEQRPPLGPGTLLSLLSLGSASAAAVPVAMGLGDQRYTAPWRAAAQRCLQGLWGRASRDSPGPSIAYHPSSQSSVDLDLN", "assay": "Cell-based TGR5 assay (cAMP generation, HTRF)", "conditions": "HEK293 cells stably transfected with human TGR5; cAMP by HTRF; 30 minutes at 37° C.; read-out: pEC50 Human TGR5 (converted)", "outline": "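Read-out was HTRF detection of cAMP, converted to concentration via a standard curve and fitted (3-parameter logistic) for pEC50 and maximal response. Agonist stimulation used HEK293 cells stably transfected with human TGR5, incubated 30 min at 37° C in IBMX-containing buffer at 0.05 nM to 10 μM compound.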", "units": {"EC50": "nM"}, "values": [
      {"smiles": "O=C(NCCOCCNS(=O)(=O)c1ccc(Cl)c(COC2(c3cnccc3-c3ccccc3OC3CC3)CC2)c1)N[C@@H](CO)[C@@H](O)[C@H](O)[C@H](O)CO", "note": "(stereo in doubt) [Compound I-408, 1-(2-{2-[4-chloro-3-({1-[4-(2-cyclopropoxyphenyl)pyridin-3-yl]cyclopropoxy}methyl)benzenesulfonamido]ethoxy}ethyl)-3-[(2S,3R,4S,5R)-1,3,4,5,6-pentahydroxyhexan-2-yl]urea]", "EC50": "< 100"},
      {"smiles": "O=C(O)CCCC(=O)N(CCCCc1cc(Cl)c(COC2(c3cnccc3-c3ccccc3OC3CC3)CC2)cc1Cl)C[C@H](O)[C@@H](O)[C@H](O)[C@H](O)CO", "note": "[Compound I-182, 4-({4-[2,5-dichloro-4-({1-[4-(2-cyclopropoxyphenyl)pyridin-3-yl]cyclopropoxy}methyl)phenyl]butyl}[(2S,3R,4R,5R)-2,3,4,5,6-pentahydroxyhexyl]carbamoyl)butanoic acid]", "EC50": "< 100"},
      {"smiles": "Cc1ccc(Cl)cc1COC1(c2cnccc2-c2ccccc2OC2CC2)CC1", "note": "[Compound I-55, 3-{1-[(5-chloro-2-methylphenyl)methoxy]cyclopropyl}-4-(2-cyclopropoxyphenyl)pyridine]", "EC50": "< 100"},
      {"smiles": "Clc1ccc(Cl)c(COC2(c3cnccc3-c3ccccc3OC3CC3)CCC2)c1", "note": "[Compound I-741, 4-(2-cyclopropoxyphenyl)-3-(1-((2,5-dichlorobenzyl)oxy)cyclobutyl)pyridine]", "EC50": "< 100"},
      {"smiles": "CC(C)(CCCc1cc(Cl)c(COC2(c3cnccc3-c3ccccc3OC3CC3)CC2)cc1Cl)C(=O)NC[C@H](O)[C@@H](O)[C@H](O)[C@H](O)CO", "note": "[Compound I-144, 5-[2,5-dichloro-4-({1-[4-(2-cyclopropoxyphenyl)pyridin-3-yl]cyclopropoxy}methyl)phenyl]-2,2-dimethyl-N-[(2S,3R,4R,5R)-2,3,4,5,6-pentahydroxyhexyl]pentanamide]", "EC50": "126 to 1000"},
      {"smiles": "Cc1ccc(CCCCC(=O)NC[C@H](O)[C@@H](O)[C@H](O)[C@H](O)CO)cc1COC1(c2cnccc2-c2ccccc2OC2CC2)CC1", "note": "(stereo in doubt) [Compound I-235, 5-[3-({1-[4-(2-cyclopropoxyphenyl)pyridin-3-yl]cyclopropoxy}methyl)-4-methylphenyl]-N-[(2S,3R,4R,5R)-2,3,4,5,6-pentahydroxyhexyl]pentanamide]", "EC50": "< 100"},
      {"smiles": "O=C(COCC1CN(S(=O)(=O)c2ccc(Cl)c(COC3(c4cnccc4-c4ccccc4OC4CC4)CC3)c2)C1)NC[C@H](O)[C@@H](O)[C@H](O)[C@H](O)CO", "note": "[Compound I-456, 2-({1-[4-chloro-3-({1-[4-(2-cyclopropoxyphenyl)pyridin-3-yl]cyclopropoxy}methyl)benzenesulfonyl]azetidin-3-yl}methoxy)-N-[(2S,3R,4R,5R)-2,3,4,5,6-pentahydroxyhexyl]acetamide]", "EC50": "< 100"},
      {"smiles": "O=C(NCCCCC[S+]([O-])c1ccc(Cl)c(COC2(c3cnccc3-c3ccccc3OC3CC3)CC2)c1)NC[C@H](O)[C@@H](O)[C@H](O)[C@H](O)CO", "note": "(stereo partly drawn) [Compound I-639, 1-{5-[4-chloro-3-({1-[4-(2-cyclopropoxyphenyl)pyridin-3-yl]cyclopropoxy}methyl)benzenesulfinyl]pentyl}-3-[(2S,3R,4R,5R)-2,3,4,5,6-pentahydroxyhexyl]urea]", "EC50": "< 100"},
      {"smiles": "O=C(NC[C@H](O)[C@@H](O)[C@H](O)[C@H](O)CO)c1cccc(OCc2ccc(Cl)c(COC3(c4cnccc4-c4ccccc4OC4CC4)CC3)c2)c1", "note": "[Compound I-727, 3-((4-chloro-3-((1-(4-(2-cyclopropoxyphenyl)pyridin-3-yl)cyclopropoxy)methyl)benzyl)oxy)-N-((2S,3R,4R,5R)-2,3,4,5,6-pentahydroxyhexyl)benzamide]", "EC50": "126 to 1000"},
      {"smiles": "CC(CCCCCNC(=O)NC[C@H](O)[C@@H](O)[C@H](O)[C@H](O)CO)c1ccc(Cl)c(CNC2(c3cnccc3-c3ccccc3OC3CC3)CC2)c1", "note": "(stereo partly drawn) [Compound I-268, 1-(6-{4-chloro-3-[({1-[4-(2-cyclopropoxyphenyl)pyridin-3-yl]cyclopropyl}amino)methyl]phenyl}heptyl)-3-[(2S,3R,4R,5R)-2,3,4,5,6-pentahydroxyhexyl]urea]", "EC50": "< 100"},
      {"smiles": "CN(C[C@H](O)[C@@H](O)[C@H](O)[C@H](O)CO)C(=O)CCCCc1ccc(Cl)c(COC2(c3cnccc3-c3ccccc3OC3CC3)CC2)c1", "note": "(stereo in doubt) [Compound I-232, 5-[4-chloro-3-({1-[4-(2-cyclopropoxyphenyl)pyridin-3-yl]cyclopropoxy}methyl)phenyl]-N-methyl-N-[(2S,3R,4R,5R)-2,3,4,5,6-pentahydroxyhexyl]pentanamide]", "EC50": "< 100"},
      {"smiles": "O=C(CCCSc1ccc(Cl)c(COC2(c3cnccc3-c3ccccc3OC3CC3)CC2)c1)NC[C@H](O)[C@@H](O)[C@H](O)[C@H](O)CO", "note": "[Compound I-498, 4-[[4-Chloro-3-([1-[4-(2-cyclopropoxyphenyl)pyridin-3-yl]cyclopropoxy]methyl)phenyl]sulfanyl]-N-[(2S,3R,4R,5R)-2,3,4,5,6-pentahydroxyhexyl]butanamide]", "EC50": "< 100"},
      {"smiles": "COCC(=O)N(CCCCc1cc(Cl)c(COC2(c3cnccc3-c3ccccc3OC3CC3)CC2)cc1Cl)C[C@H](O)[C@@H](O)[C@H](O)[C@H](O)CO", "note": "[Compound I-72, N-{4-[2,5-dichloro-4-({1-[4-(2-cyclopropoxyphenyl)pyridin-3-yl]cyclopropoxy}methyl)phenyl]butyl}-2-methoxy-N-[(2S,3R,4R,5R)-2,3,4,5,6-pentahydroxyhexyl]acetamide]", "EC50": "< 100"},
      {"smiles": "CC(=O)N(CCCCSc1ccc(Cl)c(COC2(c3cnccc3-c3ccccc3OC3CC3)CC2)c1)C[C@H](O)[C@@H](O)[C@H](O)[C@H](O)CO", "note": "[Compound I-501, N-(4-{[4-chloro-3-({1-[4-(2-cyclopropoxyphenyl)pyridin-3-yl]cyclopropoxy}methyl)phenyl]sulfanyl}butyl)-N-[(2S,3R,4R,5R)-2,3,4,5,6-pentahydroxyhexyl]acetamide]", "EC50": "< 100"},
      {"smiles": "CCCC(=O)N(CCCCc1cc(Cl)c(COC2(c3cnccc3-c3ccccc3OC3CC3)CC2)cc1Cl)C[C@H](O)[C@@H](O)[C@H](O)[C@H](O)CO", "note": "[Compound I-74, N-{4-[2,5-dichloro-4-({1-[4-(2-cyclopropoxyphenyl)pyridin-3-yl]cyclopropoxy}methyl)phenyl]butyl}-N-[(2S,3R,4R,5R)-2,3,4,5,6-pentahydroxyhexyl]butanamide]", "EC50": "126 to 1000"},
      {"smiles": "Cc1ccc(SCCCC(=O)N(C)C[C@H](O)[C@@H](O)[C@H](O)[C@H](O)CO)cc1COC1(c2cnccc2-c2ccccc2OC2CC2)CC1", "note": "[Compound I-652, 4-{[3-({1-[4-(2-cyclopropoxyphenyl)pyridin-3-yl]cyclopropoxy}methyl)-4-methylphenyl]sulfanyl}-N-methyl-N-[(2S,3R,4R,5R)-2,3,4,5,6-pentahydroxyhexyl]butanamide]", "EC50": "< 100"},
      {"smiles": "C[C@@H](CCCCNC(=O)NC[C@H](O)[C@@H](O)[C@H](O)[C@H](O)CO)c1ccc(Cl)c(CNC2(c3cnccc3-c3ccccc3OC3CC3)CC2)c1", "note": "(single isomer, unassigned) [Compound I-255]", "EC50": "< 100"},
      {"smiles": "CC(C)N(CCCCNC(=O)NC[C@H](O)[C@@H](O)[C@H](O)[C@H](O)CO)S(=O)(=O)c1cc(COC2(c3cnccc3-c3ccccc3OC3CC3)CC2)c(Cl)cc1F", "note": "[Compound I-764, 4-chloro-5-((1-(4-(2-cyclopropoxyphenyl)pyridin-3-yl)cyclopropoxy)methyl)-2-fluoro-N-isopropyl-N-(4-(3-((2S,3R,4R,5R)-2,3,4,5,6-pentahydroxyhexyl)ureido)butyl) benzenesulfonamide]", "EC50": "< 100"},
      {"smiles": "CN(C[C@H](O)[C@@H](O)[C@H](O)[C@H](O)CO)C(=O)NCCCCCc1cc(Cl)c(CNC2(c3cnccc3-c3ccccc3OC3CC3)CC2)cc1Cl", "note": "(stereo in doubt) [Compound I-163, 1-(5-{2,5-dichloro-4-[({1-[4-(2-cyclopropoxyphenyl)pyridin-3-yl]cyclopropyl}amino)methyl]phenyl}pentyl)-3-methyl-3-[(2S,3R,4R,5R)-2,3,4,5,6-pentahydroxyhexyl]urea]", "EC50": "< 100"},
      {"smiles": "Cc1ccc(C(C)CCCC(=O)N(CCN(C)C)C[C@H](O)[C@@H](O)[C@H](O)[C@H](O)CO)cc1CNC1(c2cnccc2-c2ccccc2OC2CC2)CC1", "note": "(stereo partly drawn) [Compound I-361, 5-{3-[({1-[4-(2-cyclopropoxyphenyl)pyridin-3-yl]cyclopropyl}amino)methyl]-4-methylphenyl}-N-[2-(dimethylamino)ethyl]-N-[(2S,3R,4R,5R)-2,3,4,5,6-pentahydroxyhexyl]hexanamide]", "EC50": "126 to 1000"},
      {"smiles": "O=C([C@@H](O)[C@@H](O)[C@H](O)[C@@H](O)CO)N(CCCCO)CCCCSc1ccc(Cl)c(COC2(c3cnccc3-c3ccccc3OC3CC3)CC2)c1", "note": "[Compound I-513, (2S,3S,4R,5S)-N-(4-{[4-chloro-3-({1-[4-(2-cyclopropoxyphenyl)pyridin-3-yl]cyclopropoxy}methyl)phenyl]sulfanyl}butyl)-2,3,4,5,6-pentahydroxy-N-(4-hydroxybutyl)hexanamide]", "EC50": "< 100"},
      {"smiles": "Cc1cc(CNC2(c3cnccc3-c3ccccc3OC3CC3)CC2)c(C)cc1CCCCNC(=O)NC[C@H](O)[C@@H](O)[C@H](O)[C@H](O)CO", "note": "(stereo in doubt) [Compound I-147, 1-(4-{4-[({1-[4-(2-cyclopropoxyphenyl)pyridin-3-yl]cyclopropyl}amino)methyl]-2,5-dimethylphenyl}butyl)-3-[(2S,3R,4R,5R)-2,3,4,5,6-pentahydroxyhexyl]urea]", "EC50": "126 to 1000"}
    ]}
  ]
}
